{"source": "patent US20240116990A1", "about": "“Compositions and Methods of Treatment Using CRRL 191” (Mayo Foundation for Medical Education and Research, priority 2022, published 2024)", "key": {"[1]": {"test_system": "Spontaneously Hypertensive Rats (SHR)", "assay": "Plasma cGMP in spontaneously hypertensive rats", "format": "in vivo, rat", "method": "All rat experiments are conducted following the Animal Welfare Act and the protocol is approved by the Mayo Clinic Institutional Animal Care and Use Committee (IACUC). […] Rats are included only if they are deemed healthy by the Institutional Veterinarian Department. Investigators who conduct the in vivo study are not blinded to treatments, but biochemical analysis is performed by a different investigator who is blinded to treatment.\nOn the day of the experiment, SHR rats are anesthetized with inactin (120 mg/kg, intraperitoneal injection, Sigma, St. Louis, MO). Rats are then kept on a heating pad at 38° C. to maintain a normal body temperature for the entire study. Vascular and bladder cannulation procedures are conducted. Briefly, a polyethylene-50 (PE-50) tube catheter is placed into one jugular vein for peptide infusion and another PE-50 tube is placed into the carotid artery for blood pressure (BP) monitoring (Sonometrics, London, Ontario, Canada) and blood sampling. After instrumentation, a 15-minute equilibrium period follows, and a 30-minute pre-infusion period is performed to collect baseline urine samples.\nFour blood samples are collected to determine circulating cGMP levels: at baseline, before the end of drug infusion, at the middle of the washout clearance period, and before the end of the washout clearance period. Any blood loss in the rats is replaced with an equal volume of saline. BP is monitored and recorded every 15 minutes beginning after the initiation of peptide infusion. All collected blood are stored at −80° C. until assayed.\nFor the biochemical analysis, plasma cGMP levels are measured with a cGMP ELISA kit (Enzo Life Sciences, Farmingdale, NY)."}, "[2]": {"biological_target": "T1, extracellular domain of GC-A recombinant protein (Homo sapiens, UniProt P16066)", "T1 construct": "The extracellular domain of GC-A recombinant protein with a C-terminal His-tag (MyBioSource, Inc., San Diego, CA); purchased MyBioSource, Inc., San Diego, CA", "T1 sequence (P16066 33-473 limits assumed)": "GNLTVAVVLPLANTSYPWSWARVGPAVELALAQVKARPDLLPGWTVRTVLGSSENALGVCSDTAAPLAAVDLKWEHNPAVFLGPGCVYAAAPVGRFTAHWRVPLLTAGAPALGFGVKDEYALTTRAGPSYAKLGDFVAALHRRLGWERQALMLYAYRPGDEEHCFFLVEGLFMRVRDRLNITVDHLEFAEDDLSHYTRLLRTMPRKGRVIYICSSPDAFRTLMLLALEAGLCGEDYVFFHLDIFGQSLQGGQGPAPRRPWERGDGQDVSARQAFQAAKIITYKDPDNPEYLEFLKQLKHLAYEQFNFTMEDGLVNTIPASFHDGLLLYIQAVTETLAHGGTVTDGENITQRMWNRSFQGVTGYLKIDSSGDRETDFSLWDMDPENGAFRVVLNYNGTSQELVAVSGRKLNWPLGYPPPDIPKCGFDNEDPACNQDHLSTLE", "assay": "GC-A binding by surface plasmon resonance (SPR)", "details": "SPR binding curves, FIG. 7", "experimental": "Surface plasmon resonance (SPR) measurements are performed at 25° C. on a BI-4500 SPR instrument (Biosensing Instrument Inc., Tempe, AZ). The extracellular domain of GC-A recombinant protein with a C-terminal His-tag (MyBioSource, Inc., San Diego, CA) is immobilized onto a Ni-NTA sensor chip (Biosensing Instrument Inc., Tempe, AZ) using 400 μM nickel sulfate in de-iron water as linker, as instructed by the instrument manual. Then, 40 μg/ml of recombinant GC-A is immobilized on the Ni-NTA sensor chip. […] Data are collected as sensorgrams. Binding kinetics are calculated from sensorgrams using the BI-Data Analysis Program (Biosensing Instrument, Tempe, AZ)."}, "[3]": {"assay": "physchem", "details": "water"}, "[4]": {"test_system": "Human cardiomyocytes (HCM)", "assay": "Human cardiomyocyte (HCM) cGMP analysis", "format": "cell-based", "method": "Human cardiomyocytes (HCM) are purchased from ScienCell (Catalog #6200) and maintained in Cardiac Myocyte Medium (Cat #6101, ScienCell) containing 10% FBS. An in vitro cGMP assay is performed. Briefly, HCM cells are seeded in 6-well plates and cultured overnight to 80-90% confluency. The treatment buffer used in all experiments comprises Hank's Balanced Salt Solution (HBSS), 0.1% BSA, 2 mM HEPES, and 0.5 mM 3-isobutyl-1-methylxanthine (IBMX, a non-specific phosphodiesterase inhibitor) (Sigma, St. Louis, MO). […] For the negative control, HCM are incubated in treatment buffer (vehicle) only. After treatment for 10 minutes, all cells are washed with phosphate buffered solution (PBS) once, lysed with 0.1 M HCl, and sonicated for 10 min."}, "[5]": {"test_system": "Human cardiomyocytes (HCM)", "assay": "Human cardiomyocyte real-time apoptosis analysis (staurosporine-induced, Caspase-3/7 imaging)", "format": "cell-based", "details": "0.05 μM staurosporine, 90 hours, FIG. 6", "method": "HCM cells are seeded in 96-well plate at approximately 80% confluency. Cells are treated with various concentrations of staurosporine (SP) to induce apoptosis. Based on the dose response curve, 0.05 μM of SP is selected to induce apoptosis in HCM.\nPlates are then transferred to a time-lapsed, live imaging system IncuCyte S3 (Essen BioScience, Ann Arbor, MI) for apoptosis monitoring every 2 hours for a total of 90 hours. All treatment groups are performed in quintuplicates and repeated twice. Images are collected using the IncuCyte S3 Live-Cell Analysis System Software (Essen Bioscience, Ann Arbor, MI), and the data are analyzed for the Green Object Area of apoptotic bodies per well."}, "[6]": {"details": "100 pmol/kg and 300 pmol/kg doses, FIG. 9B"}}, "note": "Bridge positions count the residues as written; N and C are the ends.", "data": [{"substance": "H-RALLTAPRSLRRSSCFGHKIDRINHVSNLGCNSFRYRITAREDKQGWA-OH (disulfide 15-31) [CRRL 191]", "values": [{"measurement": "activating cGMP in plasma compared to ANP", "setting": "[1]; [6]", "result": "more potent"}, {"measurement": "duration of plasma cGMP activation after peptide administration compared to ANP", "setting": "[1]; [6]", "result": "more sustained activation"}, {"measurement": "plasma cGMP levels", "setting": "[1]; iv infusion, FIG. 9A", "result": "increase"}, {"measurement": "binding for the GC-A receptor compared to ANP and MANP", "setting": "[2]", "result": "greater binding"}, {"measurement": "solubility", "setting": "[3]", "result": "≥ 1000", "unit": "µg/mL"}, {"measurement": "cGMP production compared to MANP or CRRL 101", "setting": "[4]; 10^−9 M to 10^−6 M, FIG. 5", "result": "great levels of cGMP production than MANP or CRRL 101"}, {"measurement": "cGMP production compared to ANP", "setting": "[4]; 10^−10 M to 10^−6 M, 10 min, FIG. 4", "result": "greater cGMP production than ANP"}, {"measurement": "cardiomyocyte apoptosis induced by SP", "setting": "[5]; 10^−6 M", "result": "greatest effect on reducing cardiomyocyte apoptosis"}, {"measurement": "cardiomyocyte apoptosis induced by SP", "setting": "[5]; 10^−8 M", "result": "reduced cardiomyocyte apoptosis"}, {"measurement": "cardiomyocyte apoptosis induced by SP", "setting": "[5]; 10^−10 M", "result": "reduced cardiomyocyte apoptosis"}]}]}
